Laboratory results as given in patent EP4582413A1, “ARYLTETRAHYDROPYRIDINE COMPOUND AND PEST CONTROL AGENT” (priority 2022, dated 2024).

Assays:
Assay type in all cases: in vivo
[1] = tested on: brown rice planthoppers (Nilaparvata lugens); test: Insecticidal test for brown rice planthoppers; details: Nilaparvata lugens, 144 h; 500 ppm chemical solution, rice leaf sheaths soaked, third-instar larvae, six days, 25°C; read-out: death rate
Method: A 10% by mass emulsion of the presently invented compound prepared according to the above formulation example for an emulsion was diluted with water containing a spreader to prepare a chemical solution having a concentration of 500 ppm. Rice leaf sheaths were soaked in the chemical solution for approximately 10 seconds. After the completion of the soaking operation, the rice leaf sheaths treated with the chemical solution were air-dried, and then put in test tubes. Into each test tube, five third-instar brown rice planthoppers (Nilaparvata lugens) larvae were released, and the test tubes were capped with sponge and accommodated in a thermostatic room at 25°C. Six days after the accommodation, the number of dead brown rice planthoppers individuals in the test tubes were examined, and the death rate was calculated from a calculation formula shown below. The test was carried out in duplicate. [formula]

[2] = tested on: western flower thrips (Frankliniella occidentalis); test: Insecticidal activity against western flower thrips; details: Frankliniella occidentalis, 48 h; 500 ppm chemical solution sprinkled (2.5 mg/cm^2), larvae on common bean leaf, after 2 days; read-out: death rate
Method: Wet filter paper was laid on each styrol cup having an inner diameter of 7 cm, and a common bean leaf cut into a 3 cm square was placed thereon, and inoculated with 20 western flower thrips (Frankliniella occidentalis) larvae. A 10% by mass emulsion of the presently invented compound prepared according to the above formulation example for an emulsion was diluted with water containing a spreader to prepare a chemical solution having a concentration of 500 ppm. For each styrol cup, 2.5 ml of the chemical solution prepared was sprinkled (2.5 mg/cm^2) with a rotary tower sprinkler. […] The test was carried out in duplicate.

[3] = tested on: diamondback moths (Plutella xylostella); test: Insecticidal test for diamondback moths; details: Plutella xylostella, 144 h; 500 ppm chemical solution, leaves soaked, third-instar larvae, six days, 25°C; read-out: death rate
Method: A 10% by mass emulsion of the presently invented compound prepared according to the above formulation example for an emulsion was diluted with water containing a spreader to prepare a chemical solution having a concentration of 500 ppm. Chinese olive leaves were soaked in the chemical solution for approximately 10 seconds. After the completion of the soaking operation, the Chinese olive leaves treated with the chemical solution were air-dried, and then put in dishes. Into each dish, five third-instar diamondback moths (Plutella xylostella) larvae were released, and the dishes were capped and accommodated in a thermostatic room at 25°C. […] The test was carried out in duplicate.

[4] = tested on: cat fleas (Ctenocephalides felis); test: whole plant or invertebrate; details: 72 h, read-out: death rate
Method: In 1 ml of acetone, 1 mg of the presently invented compound was dissolved to prepare a chemical solution having a concentration of 1000 ppm. The bottom surface and side surface of each glass container having an inner wall surface area of 25 cm^2 were coated with 250 µl of the chemical solution, and acetone was then volatilized to form a thin film of the compound on the inner wall of the glass container.
Into each of the treated glass containers, five cat fleas (Ctenocephalides felis) imagoes (mixed-sex) were released, and the glass containers were capped and accommodated in a thermostatic room at 25°C. Three days after the release, the number of dead flea individuals were examined, and the death rate was calculated from the same calculation formula as in Test Example 1.

Compound | mortality at 500 µg/mL [1] [%] | mortality at 500 µg/mL [2] [%] | mortality at 500 µg/mL [3] [%] | mortality at 10 µg/cm2 [4] [%]
O=C(Nc1cnccn1)C1=C(O)CC(c2cnc(Cl)c(-c3ccc(F)cc3)c2)NC1=O (stereo not drawn) [2-227] | ≥ 90 | ≥ 90 | ≥ 90 | ≥ 50
O=C(Nc1ncccc1Br)C1=C(O)CC(c2nc(-c3cnccc3F)no2)NC1=O (stereo not drawn) [3-233] | ≥ 90 | ≥ 90 | ≥ 90 | ≥ 50
O=C(Nc1cc(F)ccn1)C1=C(O)CC(c2nc(-c3ccc(F)c(Br)c3)no2)NC1=O (stereo not drawn) [3-146] | ≥ 90 | ≥ 90 | ≥ 90 | ≥ 50
N#Cc1ccc(NC(=O)C2=C(O)CC(c3nc(-c4ccnc(F)c4)no3)NC2=O)cc1 (stereo not drawn) [3-071] | ≥ 90 | ≥ 90 | ≥ 90 | ≥ 50
O=C(Nc1cc(F)ccn1)C1=C(O)CC(c2nc(-c3cc(F)ccc3F)no2)NC1=O (stereo not drawn) [3-050] | ≥ 90 | ≥ 90 | ≥ 90 | ≥ 50
O=C(Nc1ccc(F)cn1)C1=C(O)CC(c2cnc(Cl)c(-c3cnccc3F)c2)NC1=O (stereo not drawn) [2-136] | ≥ 90 | ≥ 90 | ≥ 90 | ≥ 50
O=C(Nc1ccccn1)C1=C(O)CC(c2nc(-c3cccc(F)c3)no2)NC1=O (stereo not drawn) [3-185] | ≥ 90 | ≥ 90 | ≥ 90 | ≥ 50
O=C(Nc1ccc(F)cc1)C1=C(O)CC(c2cnc(Cl)c(-c3ccccc3)c2)NC1=O (stereo not drawn) [2-089] | ≥ 90 | ≥ 90 | ≥ 90 | ≥ 50
Cc1ccnc(NC(=O)C2=C(O)CC(c3nc(-c4ccncc4C)no3)NC2=O)c1 (stereo not drawn) [3-176] | ≥ 90 | ≥ 90 | ≥ 90 | ≥ 50
O=C(Nc1ccc(F)cn1)C1=C(O)CC(c2nc(-c3cnc(C(F)(F)F)s3)no2)NC1=O (stereo not drawn) [3-264] | ≥ 90 | ≥ 90 | ≥ 90 | ≥ 50
O=C(Nc1ccc(F)cc1)C1=C(O)CC(c2nc(-c3cc(F)cc(F)c3)no2)NC1=O (stereo not drawn) [3-034] | ≥ 90 | ≥ 90 | ≥ 90 | ≥ 50
O=C(Nc1cccc(F)n1)C1=C(O)CC(c2cnc(Cl)c(-c3cnccc3F)c2)NC1=O (stereo not drawn) [2-142] | ≥ 90 | ≥ 90 | ≥ 90 | ≥ 50
Cc1ccc(NC(=O)C2=C(O)CC(c3nc(-c4ccc(F)cc4F)no3)NC2=O)nc1 (stereo not drawn) [3-175] | ≥ 90 | ≥ 90 | ≥ 90 | ≥ 50
O=C(Nc1cccc(F)n1)C1=C(O)CC(c2nc(-c3ccncc3F)no2)NC1=O (stereo not drawn) [3-238] | ≥ 90 | ≥ 90 | ≥ 90 | ≥ 50
O=C(Nc1ccncn1)C1=C(O)CC(c2cnc(Cl)c(-c3ccc(F)nc3)c2)NC1=O (stereo not drawn) [2-101] | ≥ 90 | ≥ 90 | ≥ 90 | ≥ 50
O=C(Nc1ccc(F)cn1)C1=C(O)CC(c2cnc(Cl)c(-c3ccc(F)nc3)c2)NC1=O (stereo not drawn) [2-009] | ≥ 90 | ≥ 90 | ≥ 90 | ≥ 50
O=C(Nc1cncc(F)c1Br)C1=C(O)CC(c2cnc(Cl)c(-c3cnccc3F)c2)NC1=O (stereo not drawn) [2-139] | ≥ 90 | ≥ 90 | ≥ 90 | ≥ 50
O=C(Nc1ccc(F)cc1)C1=C(O)CC(c2nc(-c3ccc(F)cc3)no2)NC1=O (stereo not drawn) [3-010] | ≥ 90 | ≥ 90 | ≥ 90 | ≥ 50

Compound | mortality at 500 µg/mL [1] [%] | mortality at 500 µg/mL [2] [%] | mortality at 500 µg/mL [3] [%] | mortality at 10 µg/cm2 [4] [%]
O=C(Nc1cnc(Cl)cn1)C1=C(O)CC(c2cnc(Cl)c(-c3ccc(F)nc3)c2)NC1=O (stereo not drawn) [2-011] | ≥ 90 | ≥ 90 | ≥ 90 | ≥ 50
O=C(Nc1cc(F)ccn1)C1=C(O)CC(c2nc(-c3ccsc3Cl)no2)NC1=O (stereo not drawn) [3-235] | ≥ 90 | ≥ 90 | ≥ 90 | ≥ 50
O=C(Nc1cccnc1)C1=C(O)CC(c2nc(-c3ccc(F)cc3F)no2)NC1=O (stereo not drawn) [3-177] | ≥ 90 | ≥ 90 | ≥ 90 | ≥ 50
O=C(Nc1cnc(Cl)cn1)C1=C(O)CC(c2cnc(Cl)c(-c3ccccc3)c2)NC1=O (stereo not drawn) [2-095] | ≥ 90 | ≥ 90 | ≥ 90 | ≥ 50
Cc1cccc(-c2cc(C3CC(O)=C(C(=O)Nc4ccccn4)C(=O)N3)cnc2Cl)c1 (stereo not drawn) [2-260] | ≥ 90 | ≥ 90 | ≥ 90 | ≥ 50
O=C(Nc1ccc(F)cc1)C1=C(O)CC(c2nc(-c3ccccc3F)no2)NC1=O (stereo not drawn) [3-012] | ≥ 90 | ≥ 90 | ≥ 90 | ≥ 50
O=C(Nc1ccc(Cl)nc1)C1=C(O)CC(c2cnc(Cl)c(-c3ccccc3)c2)NC1=O (stereo not drawn) [2-092] | ≥ 90 | ≥ 90 | ≥ 90 | ≥ 50
O=C(Nc1cc(F)ccn1)C1=C(O)CC(c2nc(-c3ccns3)no2)NC1=O (stereo not drawn) [3-227] | ≥ 90 | ≥ 90 | ≥ 90 | ≥ 50
Cc1cccc(-c2cc(C3CC(O)=C(C(=O)Nc4ccc(C#N)cc4)C(=O)N3)cnc2Cl)c1 (stereo not drawn) [2-269] | ≥ 90 | ≥ 90 | ≥ 90 | ≥ 50
O=C(Nc1ccc(F)c(F)c1)C1=C(O)CC(c2nc(-c3ccc(F)cc3F)no2)NC1=O (stereo not drawn) [3-161] | ≥ 90 | ≥ 90 | ≥ 90 | ≥ 50
O=C(Nc1nccs1)C1=C(O)CC(c2cnc(Cl)c(-c3cnccc3F)c2)NC1=O (stereo not drawn) [2-135] | ≥ 90 | ≥ 90 | ≥ 90 | ≥ 50
O=C(Nc1ccc(F)cc1)C1=C(O)CC(c2nc(-c3ccccn3)no2)NC1=O (stereo not drawn) [3-006] | ≥ 90 | ≥ 90 | ≥ 90 | ≥ 50
O=C(Nc1ncccn1)C1=C(O)CC(c2cnc(Cl)c(-c3cnccc3F)c2)NC1=O (stereo not drawn) [2-134] | ≥ 90 | ≥ 90 | ≥ 90 | ≥ 50
O=C(Nc1ccc(C(F)(F)F)nc1)C1=C(O)CC(c2cnc(Cl)c(-c3ccc(F)nc3)c2)NC1=O (stereo not drawn) [2-012] | ≥ 90 | ≥ 90 | ≥ 90 | ≥ 50
Cc1cccc(-c2cc(C3CC(O)=C(C(=O)Nc4cnccn4)C(=O)N3)cnc2Cl)c1 (stereo not drawn) [2-261] | ≥ 90 | ≥ 90 | ≥ 90 | ≥ 50
O=C(Nc1cc(Cl)ccn1)C1=C(O)CC(c2nc(-c3ccc(F)cc3F)no2)NC1=O (stereo not drawn) [3-155] | ≥ 90 | ≥ 90 | ≥ 90 | ≥ 50
O=C(Nc1cc(F)ccn1)C1=C(O)CC(c2nc(-c3cccc(F)c3)no2)NC1=O (stereo not drawn) [3-057] | ≥ 90 | ≥ 90 | ≥ 90 | ≥ 50
N#Cc1ccc(NC(=O)C2=C(O)CC(c3cnc(Cl)c(-c4ccccc4)c3)NC2=O)nc1 (stereo not drawn) [2-094] | ≥ 90 | ≥ 90 | ≥ 90 | ≥ 50
